Data as given in ChEMBL document CHEMBL3045592, “Studies of O,O-dimethyl α-(2,4-dichlorophenoxyacetoxy)ethylphosphonate (HW02) as a new herbicide. 1. Synthesis and herbicidal activity of HW02 and analogues as novel inhibitors of pyruvate dehydrogenase complex” (J Agric Food Chem, 2011).

What was measured:
Digitaria sanguinalis [1] = test: Post-emergence herbicidal activity against Digitaria sanguinalis (hairy crabgrass) assessed as growth inhibition at 450 ai g/ha after 20 days by green house test; format: functional
Chenopodium album [2] = test: Post-emergence herbicidal activity against Chenopodium album assessed as growth inhibition at 150 ai g/ha after 20 days by green house test; format: functional
Medicago sativa = test: Post-emergence herbicidal activity against Medicago sativa (alfalfa) assessed as growth inhibition at 1500 ai g/ha after 20 days by green house test; format: functional
Amaranthus retroflexus [3] = test: Pre-emergence herbicidal activity against Amaranthus retroflexus assessed as growth inhibition at 1500 ai g/ha after 20 days by green house test; format: functional
Digitaria sanguinalis [4] = test: Pre-emergence herbicidal activity against Digitaria sanguinalis (hairy crabgrass) assessed as growth inhibition at 150 ai g/ha after 20 days by green house test; format: functional
[5] = system: Brassica rapa subsp. oleifera; test: Post-emergence herbicidal activity against Brassica rapa subsp. oleifera Si Yue Man assessed as growth inhibition at 1500 ai g/ha after 20 days by green house test; format: functional
Setaria viridis [6] = test: Post-emergence herbicidal activity against Setaria viridis (green foxtail) assessed as growth inhibition at 150 ai g/ha after 20 days by green house test; format: functional
Chenopodium album [7] = test: Post-emergence herbicidal activity against Chenopodium album assessed as growth inhibition at 450 ai g/ha after 20 days by green house test; format: functional
Digitaria sanguinalis [8] = test: Pre-emergence herbicidal activity against Digitaria sanguinalis (hairy crabgrass) assessed as growth inhibition at 75 ai g/ha after 20 days by green house test; format: functional
Abutilon theophrasti [9] = test: Post-emergence herbicidal activity against Abutilon theophrasti (velvetleaf) assessed as growth inhibition at 75 ai g/ha after 20 days by green house test; format: functional
Abutilon theophrasti [10] = test: Pre-emergence herbicidal activity against Abutilon theophrasti (velvetleaf) assessed as growth inhibition at 450 ai g/ha after 20 days by green house test; format: functional
Digitaria sanguinalis [11] = test: Pre-emergence herbicidal activity against Digitaria sanguinalis (hairy crabgrass) assessed as growth inhibition at 450 ai g/ha after 20 days by green house test; format: functional
Echinochloa crus-galli [12] = test: Pre-emergence herbicidal activity against Echinochloa crus-galli (barnyard grass) assessed as growth inhibition at 1500 ai g/ha after 20 days by green house test; format: functional
[13] = Toxicity against Oryza sativa (rice) assessed as growth inhibition at 450 ai g/ha post-emergent application measured after 20 days by green house crop selectivity test; format: organism-based; settings: in vivo, read-out: GI
Digitaria sanguinalis [14] = test: Pre-emergence herbicidal activity against Digitaria sanguinalis (hairy crabgrass) assessed as growth inhibition at 1500 ai g/ha after 20 days by green house test; format: functional
Amaranthus retroflexus [15] = test: Post-emergence herbicidal activity against Amaranthus retroflexus assessed as growth inhibition at 1500 ai g/ha after 20 days by green house test; format: functional
Echinochloa crus-galli [16] = test: Post-emergence herbicidal activity against Echinochloa crus-galli (barnyard grass) assessed as growth inhibition at 1500 ai g/ha after 20 days by green house test; format: functional
Amaranthus retroflexus [17] = test: Post-emergence herbicidal activity against Amaranthus retroflexus assessed as growth inhibition at 450 ai g/ha after 20 days by green house test; format: functional
Abutilon theophrasti [18] = test: Post-emergence herbicidal activity against Abutilon theophrasti (velvetleaf) assessed as growth inhibition at 450 ai g/ha after 20 days by green house test; format: functional
Amaranthus spinosus [19] = test: Pre-emergence herbicidal activity against Amaranthus spinosus assessed as growth inhibition at 450 ai g/ha after 20 days by green house test; format: functional
Brassica juncea = test: Post-emergence herbicidal activity against Brassica juncea assessed as growth inhibition at 450 ai g/ha after 20 days by green house test; format: functional
Chenopodium album [20] = test: Pre-emergence herbicidal activity against Chenopodium album assessed as growth inhibition at 75 ai g/ha after 20 days by green house test; format: functional
Digitaria sanguinalis [21] = test: Post-emergence herbicidal activity against Digitaria sanguinalis (hairy crabgrass) assessed as growth inhibition at 75 ai g/ha after 20 days by green house test; format: functional
Amaranthus spinosus [22] = test: Post-emergence herbicidal activity against Amaranthus spinosus assessed as growth inhibition at 150 ai g/ha after 20 days by green house test; format: functional
Amaranthus spinosus [23] = test: Pre-emergence herbicidal activity against Amaranthus spinosus assessed as growth inhibition at 75 ai g/ha after 20 days by green house test; format: functional
Setaria viridis [24] = test: Post-emergence herbicidal activity against Setaria viridis (green foxtail) assessed as growth inhibition at 75 ai g/ha after 20 days by green house test; format: functional
[25] = target: T1, Pyruvate dehydrogenase complex (Pisum sativum) (UniProt P52902+P52904); test: Inhibition of PDHc in Pisum sativum Zhongwan-2 (pea) shoot mitochondria assessed as decrease in rate of NADH formation using sodium pyruvate as substrate at 0.1 microg/g preincubated for 25 min before substrate addition measured after 1 min by spectrophotometric assay; format: protein-complex assay; settings: Lathyrus oleraceus
[26] = target: T2, Pyruvate dehydrogenase complex (Pisum sativum, UniProt P52902+P52904); test: Inhibition of PDHc in Pisum sativum Zhongwan-2 (pea) shoot mitochondria assessed as decrease in rate of NADH formation using sodium pyruvate as substrate preincubated for 25 min before substrate addition measured after 1 min by spectrophotometric assay; format: protein-complex assay, Lathyrus oleraceus
T2 sequence (P52902 whole entry): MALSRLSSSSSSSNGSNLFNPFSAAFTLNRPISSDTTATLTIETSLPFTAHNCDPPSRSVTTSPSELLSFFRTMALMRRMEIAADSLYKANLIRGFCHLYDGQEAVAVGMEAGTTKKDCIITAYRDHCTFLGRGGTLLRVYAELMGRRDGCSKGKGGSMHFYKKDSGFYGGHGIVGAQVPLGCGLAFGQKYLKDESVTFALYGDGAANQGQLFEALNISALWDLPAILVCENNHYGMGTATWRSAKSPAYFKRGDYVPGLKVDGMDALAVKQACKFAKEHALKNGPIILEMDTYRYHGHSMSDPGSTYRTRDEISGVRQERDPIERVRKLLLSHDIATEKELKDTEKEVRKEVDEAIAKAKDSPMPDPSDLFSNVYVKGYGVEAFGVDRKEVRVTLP
T2 sequence (P52904 whole entry): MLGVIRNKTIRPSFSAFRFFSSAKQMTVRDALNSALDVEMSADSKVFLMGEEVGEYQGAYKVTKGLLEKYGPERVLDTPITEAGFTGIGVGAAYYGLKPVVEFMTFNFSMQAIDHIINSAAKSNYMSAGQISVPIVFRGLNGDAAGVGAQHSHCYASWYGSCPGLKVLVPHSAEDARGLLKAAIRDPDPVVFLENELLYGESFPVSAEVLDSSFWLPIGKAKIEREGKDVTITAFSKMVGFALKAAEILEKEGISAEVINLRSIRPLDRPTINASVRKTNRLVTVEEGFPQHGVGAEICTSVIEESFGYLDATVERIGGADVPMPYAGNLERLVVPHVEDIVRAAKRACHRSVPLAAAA

Abutilon theophrasti [27] = test: Pre-emergence herbicidal activity against Abutilon theophrasti (velvetleaf) assessed as growth inhibition at 150 ai g/ha after 20 days by green house test; format: functional
[28] = target: T1, Pyruvate dehydrogenase complex (Pisum sativum); test: Inhibition of PDHc in Pisum sativum Zhongwan-2 (pea) shoot mitochondria assessed as decrease in rate of NADH formation using sodium pyruvate as substrate at 1 microg/g preincubated for 25 min before substrate addition measured after 1 min by spectrophotometric assay; format: protein-complex assay; settings: Lathyrus oleraceus

| Compound | growth inhibition (GI) (Digitaria sanguinalis [1]) [%] | growth inhibition (GI) (Chenopodium album [2]) [%] | growth inhibition (GI) (Medicago sativa) [%] | growth inhibition (GI) (Amaranthus retroflexus [3]) [%] | growth inhibition (GI) (Digitaria sanguinalis [4]) [%] | growth inhibition (GI) [5] [%] | growth inhibition (GI) (Setaria viridis [6]) [%] | growth inhibition (GI) (Chenopodium album [7]) [%] | growth inhibition (GI) (Digitaria sanguinalis [8]) [%] | growth inhibition (GI) (Abutilon theophrasti [9]) [%] | growth inhibition (GI) (Abutilon theophrasti [10]) [%] | growth inhibition (GI) (Digitaria sanguinalis [11]) [%] | growth inhibition (GI) (Echinochloa crus-galli [12]) [%] | inhibition at 480 h [13] [%] | growth inhibition (GI) (Digitaria sanguinalis [14]) [%] | growth inhibition (GI) (Amaranthus retroflexus [15]) | growth inhibition (GI) (Echinochloa crus-galli [16]) | growth inhibition (GI) (Amaranthus retroflexus [17]) [%] | growth inhibition (GI) (Abutilon theophrasti [18]) [%] | growth inhibition (GI) (Amaranthus spinosus [19]) [%] | also measured |
| --- | --- | --- | --- | --- | --- | --- | --- | --- | --- | --- | --- | --- | --- | --- | --- | --- | --- | --- | --- | --- | --- |
| COP(=O)(COC(=O)COc1cccc(C(F)(F)F)c1)OC | 0 | 42.5 | 90 | 50 | 0 | 90 | 0 | 82.5 | 0 | 27.5 | 0 | 35 | 50 | 32.5 | 75 | <=50% | <=50% | 57.5 | 87.5 | 0 | growth inhibition (GI) (Brassica juncea): 82.5%; growth inhibition (GI) (Chenopodium album [20]): 0%; growth inhibition (GI) (Digitaria sanguinalis [21]): 0%; growth inhibition (GI) (Amaranthus spinosus [22]): 0%; growth inhibition (GI) (Amaranthus spinosus [23]): 0%; growth inhibition (GI) (Setaria viridis [24]): 0%; inhibition [25]: 11.5%; IC50 [26]: 442 µM; growth inhibition (GI) (Abutilon theophrasti [27]): 0%; inhibition [28]: 22.9% |
| COP(=O)(OC)C(C)OC(=O)COc1ccc(Cl)cc1Cl (stereo not given) [CLACYFOS] | 37.5 | 96 | 90 | 90 | 0 | 90 | 0 | 100 | 0 | 97.5 | 0 | 45 | 75 | 0 | 75 | 90% | 50% | 100 | 100 | 0 | growth inhibition (GI) (Brassica juncea): 100%; growth inhibition (GI) (Chenopodium album [20]): 0%; growth inhibition (GI) (Digitaria sanguinalis [21]): 0%; growth inhibition (GI) (Amaranthus spinosus [22]): 100%; growth inhibition (GI) (Amaranthus spinosus [23]): 0%; growth inhibition (GI) (Setaria viridis [24]): 0%; inhibition [25]: 31.1%; IC50 [26]: 18.2 µM; growth inhibition (GI) (Abutilon theophrasti [27]): 0%; inhibition [28]: 44.3% |
| O=C(O)COc1ccc(Cl)cc1Cl [2,4-DICHLOROPHENOXYACETIC ACID] | 0 | 92.5 | 90 | 90 | 10 | 90 | 0 | 100 | 0 | 72.5 | 0 | 65 | 75 | 37.5 | 90 | 90% | 50% | 100 | 100 | 0 | growth inhibition (GI) (Brassica juncea): 100%; growth inhibition (GI) (Chenopodium album [20]): 0%; growth inhibition (GI) (Digitaria sanguinalis [21]): 0%; growth inhibition (GI) (Amaranthus spinosus [22]): 92.5%; growth inhibition (GI) (Amaranthus spinosus [23]): 0%; growth inhibition (GI) (Setaria viridis [24]): 0%; inhibition [25]: 8.8%; IC50 [26]: > 4530 µM; growth inhibition (GI) (Abutilon theophrasti [27]): 0%; inhibition [28]: 12.9% |
